Assay results as given in patent publication US20160201063A1, “EPIGENETIC REGULATORS OF FRATAXIN” (RANA THERAPEUTICS, INC., priority 2013, published 2016).
Structures can show the parent of a compound that is named as a salt.

Legend:
[1] = system: FXN mRNA; experiment: Screen of library of eighty epigenetic inhibitors in GM03816 FRDA diseased fibroblasts, FXN mRNA fold change; type: cell-based, human; settings: for fold induction at 1 µM / fold induction at 5 µM: Homo sapiens, Fibroblast, 72 h; for fold induction at 1 µM: read-out: 3816 1 uM (FXN mRNA fold change); for fold induction at 5 µM: read-out: 3816 5 uM (FXN mRNA fold change)
Method: FXN RNA levels are indicated on the y-axis and the inhibitors used at both 1 μM and 5 μM are shown on the x-axis.
A screen of a library of eighty epigenetic inhibitors (Cayman Chemical) was performed in GM03816 FRDA fibroblasts to identify epigenetic regulators that upregulate FXN expression.

[2] = system: FXN mRNA; experiment: Screen of epigenetic inhibitors in GM0321 normal fibroblasts, FXN RNA levels; type: cell-based, human; settings: for fold induction at 1 µM / fold induction at 5 µM: Homo sapiens, Fibroblast, 72 h; for fold induction at 1 µM: read-out: FXN mRNA fold change, 321B 1 uM; for fold induction at 5 µM: read-out: FXN mRNA fold change, 321B 5 uM
[3] = GM03816 FRDA diseased fibroblasts, 1 uM inhibitor, 3 days of treatment
[4] = GM03816 FRDA diseased fibroblasts, 5 uM inhibitor, 3 days of treatment
[5] = GM0321 normal fibroblasts, 1 uM inhibitor, 3 days of treatment
[6] = GM0321 normal fibroblasts, 5 uM inhibitor, 3 days of treatment

SMILES | fold induction at 1 µM [1, 3] | fold induction at 5 µM [1, 4] | fold induction at 1 µM [2, 5] | fold induction at 5 µM [2, 6] | 3816 1 uM (FXN mRNA fold change) [1, 3] | 3816 5 uM (FXN mRNA fold change) [1, 4] | FXN mRNA fold change, 321B 1 uM [2, 5] | FXN mRNA fold change, 321B 5 uM [2, 6] | also measured
O=C(/C=C/c1ccc(O)cc1)c1ccc(O)cc1O [Isoliquiritigenin] | 1.27 | 0.963 | 1.16 | 1.29 |  |  |  |  | 
O=C(O)CCNc1cc(N2CCc3ccccc3CC2)nc(-c2ccccn2)n1 [GSK-J1 (sodium salt)] |  |  |  |  | 0.8866 | 0.7892 | 0.9779 | 0.9423 | 
CCOC(=O)CCNc1cc(N2CCc3ccccc3CC2)nc(-c2ccccn2)n1.Cl [GSK-J4 (hydrochloride)] |  |  |  |  | 0.927 | 0.8762 | 1.002 | 0.8744 | 
O=c1ncccn1[C@@H]1O[C@H](CO)[C@@H](O)[C@H]1O [Zebularine] | 1.07 | 1.09 | 1.07 | 1.03 |  |  |  |  | 
O=C(O)c1cccc2ccccc12 [1-Naphthoic Acid] | 1.05 | 0.869 | 0.819 | 0.72 |  |  |  |  | 
Cc1ccc(NC(=O)CCCCCC(=O)Nc2ccccc2N)cc1 [Pimelic Diphenylamide 106] |  |  |  |  | 0.7457 | 0.4858 | 0.694 | 0.2094 | 
CC(C)[C@H](C(=O)Nc1ccc(C(=O)NO)cc1)c1ccccc1 [(S)-HDAC-42] |  |  |  |  | 0.2419 | 0.1894 |  | 0.6941 | 
Nc1ncnc2c1ncn2[C@@H]1O[C@H](C[C@@H](N)CC[C@H](N)C(=O)O)[C@@H](O)[C@H]1O [Sinefungin, reference compound] | 0.895 | 0.862 | 0.551 | 0.821 |  |  |  |  | 
CC(/C=C/C(=O)NO)=C\[C@@H](C)C(=O)c1ccc(N(C)C)cc1 [Trichostatin A] |  |  |  |  | 0.9338 | 0.6921 | 1.023 | 0.7721 | 
Nc1nc(OCc2cc(Br)cs2)c2[nH]cnc2n1 [Lomeguatrib] |  |  | 1.05 | 1.28 |  |  |  |  | 
CN(C)CCCCC(=O)Nc1ccc(NC(=S)NC(=O)c2ccc(C(C)(C)C)cc2)cc1 [Tenovin-6] |  |  |  |  |  |  | 1.23 | 1.282 | 
Cc1ccc(C(=O)Nc2ccc(S(=O)(=O)O)c3cc(S(=O)(=O)O)cc(S(=O)(=O)O)c23)cc1NC(=O)c1cccc(NC(=O)Nc2cccc(C(=O)Nc3cc(C(=O)Nc4ccc(S(=O)(=O)O)c5cc(S(=O)(=O)O)cc(S(=O)(=O)O)c45)ccc3C)c2)c1 [Suramin] |  |  |  |  |  |  |  |  | fold induction at 1 µM [1]: 0.954; fold induction at 5 µM [1]: 0.835; fold induction at 5 µM [2]: 0.772
O=C(Nc1ccc(Cl)cc1)C1CCCN(C(=O)c2cc(C(F)(F)F)cc(C(F)(F)F)c2)C1 (stereo not shown) [CCG-100602] |  |  |  |  | 1.147 | 1.213 | 0.8325 | 0.9592 | 
Nc1ncnc2c1ncn2[C@@H]1O[C@H](CSCC[C@H](N)C(=O)O)[C@@H](O)[C@H]1O [S-Adenosylhomocysteine] | 1.07 | 0.886 | 0.975 | 0.619 |  |  |  |  | 
O=C(O)C(Cc1c[nH]c2ccccc12)N1C(=O)c2ccccc2C1=O (stereo not shown) [RG-108] |  |  |  |  | 1.001 | 0.8966 |  | 0.6222 | 
CCCC(=O)[O-].[Na+] [Sodium Butyrate] |  |  |  |  |  |  |  |  | fold induction at 1 µM [1]: 1.03; fold induction at 5 µM [1]: 1.16; fold induction at 1 µM [2]: 1.06; fold induction at 5 µM [2]: 0.707

SMILES | fold induction at 1 µM [1, 3] | fold induction at 5 µM [1, 4] | fold induction at 1 µM [2, 5] | fold induction at 5 µM [2, 6] | 3816 1 uM (FXN mRNA fold change) [1, 3] | 3816 5 uM (FXN mRNA fold change) [1, 4] | FXN mRNA fold change, 321B 1 uM [2, 5] | FXN mRNA fold change, 321B 5 uM [2, 6] | also measured
CC(C(=O)Nc1cccc(/N=C/c2c(O)ccc3ccccc23)c1)c1ccccc1 (stereo not shown) [Salermide] | 1.16 | 0.996 | 1.06 | 0.815 |  |  |  |  | 
Nc1ncn([C@H]2C[C@H](O)[C@@H](CO)O2)c(=O)n1 [Decitabine] |  |  | 1.15 | 1.53 |  |  |  |  | 
O=C1CCc2c(ccc3ccccc23)O1 [Splitomicin] | 0.957 | 0.939 | 1.08 | 1.01 |  |  |  |  | 
O=C(/C=C/c1cccc(C(=O)NO)c1)NO [CBHA] |  |  |  |  | 0.4678 | 0.1327 | 0.7208 | 0.4875 | 
O=C(O)CCNc1cc(N2CCc3ccccc3CC2)nc(-c2cccnc2)n1 [GSK-J2 (sodium salt)] |  |  |  |  | 0.9711 | 0.9938 | 1.063 |  | 
Oc1cc(O)c2cc(O)c(-c3cc(O)c(O)c(O)c3)[o+]c2c1 [Delphinidin chloride] | 0.954 | 0.885 | 1.09 | 1.04 |  |  |  |  | 
NC(=O)c1cccc(N)c1 [3-amino Benzamide] |  |  |  |  | 1.289 | 1.357 | 1.089 | 1.365 | 
CCCC(CCC)C(=O)O [Valproic acid] | 0.901 | 1 | 1.26 | 0.847 |  |  |  |  | 
O=C(Nc1ccc2c(O)cc(S(=O)(=O)O)cc2c1)Nc1ccc2c(O)cc(S(=O)(=O)O)cc2c1 [AMI-1] |  |  |  |  | 0.5579 | 0.566 |  | 0.4073 | 
CCOC(=O)c1ccnc(C(=O)OCC)c1 [2,4-DPD] |  |  |  |  | 1.179 | 0.9456 | 0.877 | 0.7372 | 
Cl.N[C@@H]1C[C@H]1c1ccccc1 (racemic) [2-PCPA (hydrochloride)] |  |  |  |  | 1.058 | 0.8786 | 0.7149 | 0.7888 | 
COc1cc2c(NC3CCN(C)CC3)nc(N3CCCN(C)CC3)nc2cc1OCCCN(C)C [UNC0224, 7-[3-(Dimethylamino)propoxy]-2-(hexahydro-4-methyl-1H-1,4-diazepin-1-yl)-6-methoxy-N-(1-methyl-4-piperidinyl)-4-quinazolinamine, reference compound] | 0.958 | 0.656 | 0.876 | 0.875 |  |  |  |  | 
C=C(C)[C@@H](CC=C(C)C)C[C@@]12C[C@@H](CC=C(C)C)C(C)(C)[C@@](CC=C(C)C)(C(=O)C(C(=O)c3ccc(O)c(O)c3)=C1O)C2=O [Garcinol] | 1.01 | 1.09 | 0.63 | 1.33 |  |  |  |  | 
CCCCc1nc2cc(/C=C/C(=O)NO)ccc2n1CCN(CC)CC [SB 939] | 0.298 | 0.315 | 0.435 | 0.465 |  |  |  |  | 
CC(=O)Nc1ccc(NC(=S)NC(=O)c2ccc(C(C)(C)C)cc2)cc1 [tenovin-1] |  |  |  |  |  |  | 1.444 |  | 
O=C(c1ccc(C(=O)N2CCC(N3CCCC3)CC2)c(Nc2ccccc2)c1)N1CCC(N2CCCC2)CC1 [UNC1215] |  |  |  |  | 0.6911 | 0.8743 |  |  | 
